Test results from patent EP1415984A1, “Aryloxyarylsulfonylamino hydroxamic acid derivatives” (Pfizer Products Inc., priority 1997, dated 1999).
pIC50: −log10 of the molar value. “And” between values parts separate entries of the source, which are not always exact repeats. Equal values may be shown once.

Columns and labels:
Human recombinant MMP-13 = Human recombinant MMP-13 (Homo sapiens, UniProt P45452); assay: Inhibition of MMP-13, fluorogenic peptide substrate; format: biochemical; settings: human recombinant MMP-13 activated with APMA; each table line is a separate determination
Experimental: Human recombinant MMP-13 is activated with 2mM APMA (p-aminophenyl mercuric acetate) for 1.5 hours, at 37°C and is diluted to […] in assay buffer (50 mM Tris, pH 7.5, 200 mM sodium chloride, 5mM calcium chloride, […], 0.02% brij). Twenty-five microliters of diluted enzyme is added per well of a 96 well microfluor plate. The enzyme is then diluted in a 1:4 ratio in the assay by the addition of inhibitor and substrate to give a final concentration in the assay of […].
10 mM stock solutions of inhibitors are made up in dimethyl sulfoxide and then diluted in assay buffer as per the inhibitor dilution scheme for inhibition of human collagenase (MMP-1): Twenty-five microliters of each concentration is added in triplicate to the microfluor plate. The final concentrations in the assay are 30 mM, 3mM, 0.3 mM, and 0.03 mM.
Substrate (Dnp-Pro-Cha-Gly-Cys(Me)-His-Ala-Lys(NMA)-NH2) is prepared as for inhibition of human collagenase (MMP-1) and […] is added to each well to give a final assay concentration of […]. Fluorescence readings (360 nm excitation; 450 emission) are taken at time 0 and every 5 minutes for 1 hour.
Positive controls consist of enzyme and substrate with no inhibitor and blanks consist of substrate only.
IC50's are determined as per inhibition of human collagenase (MMP-1). If IC50's are reported to be less than […], inhibitors are then assayed at final concentrations of 0.3 mM, 0.03 mM, 0.003 mM and 0.0003 mM.

[1] = target: T1, Human Collagenase (MMP-1) (Homo sapiens, UniProt P03956); assay: Inhibition of Human Collagenase (MMP-1), fluorogenic peptide substrate; format: biochemical; settings: human recombinant collagenase activated with trypsin; each table line is a separate determination
T1 sequence (P03956 100-469): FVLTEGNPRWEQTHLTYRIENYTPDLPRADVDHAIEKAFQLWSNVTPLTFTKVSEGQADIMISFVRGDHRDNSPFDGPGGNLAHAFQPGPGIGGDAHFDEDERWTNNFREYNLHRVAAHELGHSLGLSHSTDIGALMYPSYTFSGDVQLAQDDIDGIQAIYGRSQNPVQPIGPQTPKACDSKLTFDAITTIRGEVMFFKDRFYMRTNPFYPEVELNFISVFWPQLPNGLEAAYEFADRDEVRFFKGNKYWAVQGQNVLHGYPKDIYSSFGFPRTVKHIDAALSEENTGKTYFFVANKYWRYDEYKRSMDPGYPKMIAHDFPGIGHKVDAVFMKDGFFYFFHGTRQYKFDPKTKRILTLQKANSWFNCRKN
Experimental: Inhibition of Human Collagenase (MMP-1)
Human recombinant collagenase is activated with trypsin using the following ratio: […] of collagenase. The trypsin and collagenase are incubated at room temperature for 10 minutes then a five fold excess (50 mg/10 mg trypsin) of soybean trypsin inhibitor is added.
10 mM stock solutions of inhibitors are made up in dimethyl sulfoxide and then diluted using the following Scheme: 10 mM ―> 120 µM ―> 12 µM ―> 1.2 µM ―> 0.12 µM
Twenty-five microliters of each concentration is then added in triplicate to appropriate wells of a 96 well microfluor plate. The final concentration of inhibitor will be a 1:4 dilution after addition of enzyme and substrate. Positive controls (enzyme, no inhibitor) are set up in wells D1-D6 and blanks (no enzyme, no inhibitors) are set in wells D7-D12.
Collagenase is diluted to 400 ng/ml and […] is then added to appropriate wells of the microfluor plate. Final concentration of collagenase in the assay is 100 ng/ml.
Substrate (DNP-Pro-Cha-Gly-Cys(Me)-His-Ala-Lys(NMA)-NH2) is made as a 5 mM stock in dimethyl sulfoxide and then diluted to […] in assay buffer. The assay is initiated by the addition of […] substrate per well of the microfluor plate to give a final concentration of […].
Fluorescence readings (360 nm excitation. 460 nm emission) were taken at time 0 and then at 20 minute intervals. The assay is conducted at room temperature with a typical assay time of 3 hours.
Fluorescence vs time is then plotted for both the blank and collagenase containing samples (data from triplicate determinations is averaged). […] The zero time is used as a blank for each compound at each concentration and these values are subtracted from the 120 minute data. Data is plotted as inhibitor concentration vs % control (inhibitor fluorescence divided by fluorescence of collagenase alone x 100). IC50's are determined from the concentration of inhibitor that gives a signal that is 50% of the control. […]

| pIC50 (Human recombinant MMP-13) | pIC50 [1] | Compound |
| --- | --- | --- |
| 8.92 and 9.22 | 6.44 and 6.70 | O=C(O)CCN(C1(C(=O)NO)CCCC1)S(=O)(=O)c1ccc(Oc2ccc(F)cc2)cc1 [Example 2, 3-[[4-(4-FLUOROPHENOXY)BENZENESULFONYL]-(1-HYDROXYCARBAMOYLCYCLOPENTYL) AMINO]PROPIONIC ACID] |
| 8.80 and 8.64 | 5.92 and 5.74 | CCOC(=O)CCN(C(C)(C)C(=O)NO)S(=O)(=O)c1ccc(Oc2ccc(F)cc2)cc1 [Example 3, 3-[[4-(4-FLUOROPHENOXY)BENZENESULFONYL]-(1-HYDROXYCARBAMOYL-1-METHYLETHYL)AMINO]PROPIONIC ACID ETHYL ESTER] |
| 8.24 and 8.64 and 8.10 | 5.46 and 5.70 and 5.32 | CC(C)(C(=O)NO)N(CCC(=O)O)S(=O)(=O)c1ccc(Oc2ccc(F)cc2)cc1 [Example 4, 3-[[4-(4-FLUOROPHENOXY)BENZENESULFONYL)-(1-HYDROXYCARBAMOYL-1-METHYLETHYL)AMINO]PROPIONIC ACID] |
